Measured values reported in ChEMBL document CHEMBL1201862, “PubChem BioAssay data set” (2004).
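Each compound was tested at five concentrations against cells in 96-well plates for 48 hours. Abbreviation: GI50, concentration required for 50% inhibition of growth.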 The source made the active and inactive calls. Rule as the data show it: active = GI50 up to about 1.1 µM and inactive = higher.

Experiments:
Assay in all cases: NCI anticancer screen, dose series, 48 h
SF-295 = system: SF-295
CAKI-1 = system: CAKI-1
LXFL 529 = system: LXFL 529
OVCAR-4 = system: OVCAR-4
UACC-257 = system: UACC-257
KM12 = system: KM12
UO-31 = system: UO-31
HCT-116 = system: HCT-116
HL-60 = system: HL-60
SNB-78 = system: SNB-78
K562 = system: K562
HT-29 = system: HT-29
IGROV-1 = system: IGROV-1
OVCAR-5 = system: OVCAR-5
NCI-H522 = system: NCI-H522
LOX IMVI = system: LOX IMVI
XF498 = system: XF498
SF-268 = system: SF-268
CCRF-CEM = system: CCRF-CEM
COLO 205 = system: COLO 205
A549 = system: A549
HCC 2998 = system: HCC 2998
NCI-H23 = system: NCI-H23
SK-MEL-2 = system: SK-MEL-2
Malme-3M = system: Malme-3M
786-0 = system: 786-0
OVCAR-8 = system: OVCAR-8
SNB-19 = system: SNB-19
U-251 = system: U-251
M14 = system: M14
SK-MEL-5 = system: SK-MEL-5
MOLT-4 = system: MOLT-4
SK-MEL-28 = system: SK-MEL-28
RPMI-8226 = system: RPMI-8226
ACHN = system: ACHN
DMS-273 = system: DMS-273
M19-MEL = system: M19-MEL
NCI-H226 = system: NCI-H226
KM-20L2 = system: KM-20L2
HOP-92 = system: HOP-92
OVCAR-3 = system: OVCAR-3
TK-10 = system: TK-10
EKVX = system: EKVX
SNB-75 = system: SNB-75
NCI-H460 = system: NCI-H460
HOP-18 = system: HOP-18
SK-OV-3 = system: SK-OV-3
RXF 393 = system: RXF 393
SR = system: SR
DLD-1 = system: DLD-1
HOP-62 = system: HOP-62
UACC-62 = system: UACC-62
HCT-15 = system: HCT-15
SW-620 = system: SW-620

With `COC1OC(OC)C2C(c3c(C)cc(C)cc3C)=NOC12` (centres undefined) the GI50 (SF-295) was > 100 µM (inactive), the GI50 (CAKI-1) was > 100 µM (inactive) and the GI50 (LXFL 529) was > 100 µM (inactive). The GI50 (OVCAR-4) was > 100 µM (inactive), the GI50 (UACC-257) was > 100 µM (inactive) and the GI50 (KM12) was > 100 µM (inactive). For the same compound, the GI50 (UO-31) was > 100 µM (inactive), the GI50 (HCT-116) was > 100 µM (inactive) and the GI50 (HL-60) was > 100 µM (inactive). The GI50 (SNB-78) was > 100 µM (inactive), the GI50 (K562) was > 100 µM (inactive) and the GI50 (HT-29) was > 100 µM (inactive). The GI50 (IGROV-1) was > 100 µM (inactive), the GI50 (OVCAR-5) was > 100 µM (inactive) and the GI50 (NCI-H522) was > 100 µM (inactive). For the same compound, the GI50 (LOX IMVI) was > 100 µM (inactive), the GI50 (XF498) was > 100 µM (inactive) and the GI50 (SF-268) was > 100 µM (inactive). The GI50 (CCRF-CEM) was > 100 µM (inactive), the GI50 (COLO 205) was > 100 µM (inactive) and the GI50 (A549) was > 100 µM (inactive). The GI50 (HCC 2998) was > 100 µM (inactive), the GI50 (NCI-H23) was > 100 µM (inactive) and the GI50 (SK-MEL-2) was > 100 µM (inactive). For the same compound, the GI50 (Malme-3M) was > 100 µM (inactive), the GI50 (786-0) was > 100 µM (inactive) and the GI50 (OVCAR-8) was > 100 µM (inactive). For the same compound, the GI50 (SNB-19) was > 100 µM (inactive), the GI50 (U-251) was 20.3 µM (inactive) and the GI50 (M14) was > 100 µM (inactive). The GI50 (SK-MEL-5) was > 100 µM (inactive), the GI50 (MOLT-4) was > 100 µM (inactive) and the GI50 (SK-MEL-28) was > 100 µM (inactive). For the same compound, the GI50 (RPMI-8226) was > 100 µM (inactive), the GI50 (ACHN) was > 100 µM (inactive) and the GI50 (DMS-273) was > 100 µM (inactive). For the same compound, the GI50 (M19-MEL) was > 100 µM (inactive), the GI50 (NCI-H226) was > 100 µM (inactive) and the GI50 (KM-20L2) was > 100 µM (inactive). For the same compound, the GI50 (HOP-92) was > 100 µM (inactive), the GI50 (OVCAR-3) was > 100 µM (inactive) and the GI50 (TK-10) was > 100 µM (inactive). The GI50 (EKVX) was > 100 µM (inactive), the GI50 (SNB-75) was > 100 µM (inactive) and the GI50 (NCI-H460) was > 100 µM (inactive). For the same compound, the GI50 (HOP-18) was > 100 µM (inactive), the GI50 (SK-OV-3) was > 100 µM (inactive) and the GI50 (RXF 393) was > 100 µM (inactive). For the same compound, the GI50 (SR) was > 100 µM (inactive), the GI50 (DLD-1) was > 100 µM (inactive) and the GI50 (HOP-62) was 2.13 µM (inactive). The GI50 (UACC-62) was > 100 µM (inactive), the GI50 (HCT-15) was greater than 100 µM and the GI50 (SW-620) was > 100 µM (inactive).
